{"source": "patent US20230136569A1", "about": "“USE OF NMN TO REDUCE IMMUNODEPRESSION AND IMMUNOSENESCENCE” (NUVAMID SA, priority 2020, published 2023)", "key": {"thymocytes": {"system": "thymocytes", "assay": "Flow cytometry of thymocytes from old mice", "assay_type": "in vivo", "details": "500 mg/kg p.o. in drinking water, 6 weeks (FIG. 3)", "experimental": "The administering of β-NMN at 500 mg/kg, of α-NMN at 500 mg/kg and of the vehicle (water) was obtained via oral route (p.o) in the drinking water to young and old mice. The solutions were prepared by dissolving the powder of β-NMN or α-NMN in the vehicle (water). The study comprised 4 groups each having 6 mice: • Group 1: young mice (aged 10 weeks)+drinking water (vehicle) • Groupe 2: old mice (aged 15 months)+drinking water (vehicle) • Group 3: old mice (aged 15 months)+compound I-B (alpha-NMN) in the drinking water • Group 4: old mice (aged 15 months)+compound I-A (beta-NMN) in the drinking water The water consumption of the mice was assessed per cage every other day. The mice were weighed every week. The mice in Group 3 were sacrificed after 4 weeks for organ collection and characterisation of T cell function. The mice in Group 4 were sacrificed after 6 weeks for organ collection and characterisation of T cell function. On the day of sacrifice, the mice were anaesthetised with Vetoflurane (isoflurane) and blood samples were taken from the retroorbital sinus. The blood was incubated for 30 minutes at ambient temperature and then centrifuged at 1300 g for 10 minutes. […] The thymus was weighed and measured to evaluate involution thereof. […] Measured parameters: The results of flow cytometry are expressed in number or as a proportion of cells per organ. […]"}, "[1]": {"system": "B cells present in the spleen", "assay": "Flow cytometry of B cells in the spleen of old mice", "assay_type": "in vivo", "details": "500 mg/kg p.o., 6 weeks", "experimental": "The administering of β-NMN at 500 mg/kg, of α-NMN at 500 mg/kg and of the vehicle (water) was obtained via oral route (p.o) in the drinking water to young and old mice. The solutions were prepared by dissolving the powder of β-NMN or α-NMN in the vehicle (water). The study comprised 4 groups each having 6 mice: • Group 1: young mice (aged 10 weeks)+drinking water (vehicle) • Groupe 2: old mice (aged 15 months)+drinking water (vehicle) • Group 3: old mice (aged 15 months)+compound I-B (alpha-NMN) in the drinking water • Group 4: old mice (aged 15 months)+compound I-A (beta-NMN) in the drinking water The water consumption of the mice was assessed per cage every other day. The mice were weighed every week. The mice in Group 3 were sacrificed after 4 weeks for organ collection and characterisation of T cell function. The mice in Group 4 were sacrificed after 6 weeks for organ collection and characterisation of T cell function. On the day of sacrifice, the mice were anaesthetised with Vetoflurane (isoflurane) and blood samples were taken from the retroorbital sinus. The blood was incubated for 30 minutes at ambient temperature and then centrifuged at 1300 g for 10 minutes. After sacrificing of the mice, the spleen, thymus, and bone marrow of each animal were removed. The thymus was weighed and measured to evaluate involution thereof. For illustration purposes, photos of the thymus were taken on 5 animals per group. The thymus was divided into two parts: one part was treated with formol for histological examination. The second part was treated for characterisation of the immune cells. For characterisation of the cells, the thymus and spleen were crushed through a sieve of […] over a 50 mL tube with a syringe plunger. The bone marrow was rinsed with RPMI culture medium using a needle and syringe. The cell suspension was then centrifuged at 400 g for 5 minutes at 4° C. Lysis of the red blood cells was also performed before the cell count and use thereof for cytometry. The isolated cells of the spleen, thymus and bone marrow were marked with antibodies in accordance with the following tables to identify the proportion of effector and memory naive T and B cells. The following B cells of the spleen were also examined for characterisation as a function of the combination of proteins on the surface thereof: [table] Measured parameters: The results of flow cytometry are expressed in number or as a proportion of cells per organ. The weight of the thymus is expressed in grams."}}, "data": [{"smiles": "NC(=O)c1ccc[n+]([C@@H]2O[C@H](COP(=O)([O-])O)[C@@H](O)[C@H]2O)c1", "note": "(stereo in doubt) [I-A, nicotinamide mononucleotide]", "values": [{"measurement": "number of CD8+ thymocytes", "setting": "thymocytes", "result": "increase in the number of CD8+ thymocytes"}, {"measurement": "number of activated B cells in the spleen", "setting": "[1]; compared with the other groups (FIG. 6B)", "result": "increase in the number of activated B cells"}, {"measurement": "number of memory B cells in the spleen", "setting": "[1]; compared with the other groups (FIG. 6C)", "result": "increase"}, {"measurement": "number of germinal B cells in the spleen", "setting": "[1]; compared with the other groups (FIG. 6D)", "result": "increase"}, {"measurement": "number of B cells in the spleen", "setting": "[1]; compared with the other groups of mice (FIG. 6A)", "result": "significantly increased"}]}]}
